From publication PMC11180795 (Frontiers in Pharmacology, 2024)

Legend:
IFN-γ = assay: Th1/Th2 cytokine measurement (Cytometric Bead Array) in LPS-stimulated Raw 264.7 cells, IFN-γ; assay type: cell-based, Murine; details: compound at 20 µM; for effect on IFN-γ production (in words): vs stimulated and untreated control
Protocol: (§1) Raw 264.7 cells were seeded at 2 × 10^5 cells/mL in a 48-well microplate and allowed to adhere for 24 h, then treated with LPS 0.1 μg/mL and with compounds (1), (5) and (6) at 20 µM. Untreated cells and indomethacin (10 µM) were used as controls. After 24 h of incubation, the supernatant was collected and the amount of pro-inflammatory Th1 cytokines (IFN-γ, TNF-α, and IL-2) and anti-inflammatory Th2 cytokines (IL-4, IL-6, and IL-10) released measured. The experiment was performed according to the manufacturer’s instructions using BD™ Cytometric Bead Array (CBA) […] Th1/Th2 Cytokine Kit (BD-Biosciences), and data were acquired on a BD LSR Fortessa™ cell analyzer flow cytometer.

IL-4 = assay: Th1/Th2 cytokine measurement (Cytometric Bead Array) in LPS-stimulated Raw 264.7 cells, IL-4; assay type: cell-based, Murine; details: compound at 20 µM, LPS 0.1 μg/mL, 24 h; stimulated untreated control 1.01 pg/mL
Protocol: as §1

[1] = target: T1, 15-lipoxygenase from Glycine max (Glycine max, UniProt P08170); assay: Soybean 15-LOX inhibition assay (ferrous oxidation-xylenol orange); assay type: biochemical; details: linoleic acid 140 µM, pH 7.4, 25°C
T1 construct: purchased Sigma (Germany)
T1 sequence (P08170 1-839): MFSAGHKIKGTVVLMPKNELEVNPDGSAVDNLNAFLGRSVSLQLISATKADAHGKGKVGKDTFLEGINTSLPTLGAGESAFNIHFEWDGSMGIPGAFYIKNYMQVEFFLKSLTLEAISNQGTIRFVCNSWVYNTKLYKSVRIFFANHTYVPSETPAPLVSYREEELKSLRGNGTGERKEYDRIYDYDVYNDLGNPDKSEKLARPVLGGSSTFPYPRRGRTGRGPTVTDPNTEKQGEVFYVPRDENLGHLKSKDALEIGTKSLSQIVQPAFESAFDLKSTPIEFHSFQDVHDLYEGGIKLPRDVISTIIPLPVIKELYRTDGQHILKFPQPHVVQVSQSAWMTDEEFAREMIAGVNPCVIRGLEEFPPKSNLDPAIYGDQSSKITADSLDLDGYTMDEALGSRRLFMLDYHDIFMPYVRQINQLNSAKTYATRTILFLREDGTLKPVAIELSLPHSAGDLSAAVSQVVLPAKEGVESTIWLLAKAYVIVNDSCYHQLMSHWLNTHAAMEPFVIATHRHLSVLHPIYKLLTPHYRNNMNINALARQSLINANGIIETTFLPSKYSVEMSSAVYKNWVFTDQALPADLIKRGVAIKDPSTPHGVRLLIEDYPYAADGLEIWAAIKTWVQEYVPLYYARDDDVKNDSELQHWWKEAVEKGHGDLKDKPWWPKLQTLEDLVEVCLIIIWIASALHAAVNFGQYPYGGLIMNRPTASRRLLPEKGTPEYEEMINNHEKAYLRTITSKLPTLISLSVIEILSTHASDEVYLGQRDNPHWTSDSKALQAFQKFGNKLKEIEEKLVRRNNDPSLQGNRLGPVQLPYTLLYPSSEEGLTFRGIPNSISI
Protocol: The assay was performed according to a previously described procedure ([Pinto et al., 2007]) with slight modifications. The assay is based on measuring the formation of the complex Fe3^+/xylenol orange in a spectrophotometer at 560 nm. 15-LOX from G. max was incubated with compounds or standard inhibitors at 25°C for 5 min. The concentration range of the samples were from 250 μM to 1.95 µM. Then linoleic acid (final concentration, 140 µM) in Tris-HCl buffer (50 mM, pH 7.4) was added and the mixture was incubated at 25°C for 20 min in the dark. The assay was terminated by the addition of 100 µL of FOX reagent consisting of sulfuric acid (30 mM), xylenol orange (100 µM), iron (II) sulfate (100 µM) in methanol/water (9:1). For the control, only LOX solution and buffer were pipetted into the wells. Blanks (background) contained the enzyme LOX during incubation, but the substrate (linoleic acid) was added after the FOX reagent. […] The LOX inhibitory activity was evaluated by calculating the percentage of the inhibition of hydroperoxide production from the changes in absorbance values at 560 nm after 30 min at 25°C. % inhibition = [(Acontrol – Ablank) – (Asample – Ablank)/(Acontrol – Ablank)] x100. Where Acontrol is the absorbance of control well, Ablank is the absorbance of blank well and Asample is the absorbance of sample well.

IL-10 = assay: Th1/Th2 cytokine measurement (Cytometric Bead Array) in LPS-stimulated Raw 264.7 cells, IL-10; assay type: cell-based, Murine; details: compound at 20 µM, LPS 0.1 μg/mL, 24 h; stimulated untreated control 0.88 pg/mL
Protocol: as §1

Row | Structure (SMILES) | IFN-γ level (IFN-γ; LPS 0.1 μg/mL, 24 h, stimulated untreated control 0.84 pg/mL) | IL-4 level (IL-4) | IC50 [1] | IL-10 level (IL-10) | effect on IFN-γ production (in words) (IFN-γ)
1 | CC(C)=CCc1c2c(c3oc4c(O)cccc4c(=O)c3c1O)C=CC(C)(C)O2 [Compound 1, Ananixanthone] | 0.43 pg/mL | 1.23 pg/mL | 63.9 µM | 0.971 pg/mL | 
2 | CC(C)=CCC/C(C)=C/C[C@]12C[C@@H](CC=C(C)C)C(C)(C)[C@](C/C=C(\C)CCC=C(C)C)(C(=O)C(C(=O)c3ccc(O)c(O)c3)=C1O)C2=O [Compound 5, Guttiferone O] |  | 2.25 pg/mL | 45 µM | 2.05 pg/mL | significantly reduces
3 | CC(C)=CCC/C(C)=C/C[C@]12C[C@@H](CC=C(C)C)C(C)(C)[C@](CC=C(C)C)(C(=O)C(C(=O)c3ccc(O)c(O)c3)=C1O)C2=O [Compound 6, Guttiferone M] |  | 0.94 pg/mL | 53 µM | 1.77 pg/mL | moderate decrease
